# From patent US9744236B2, “Photolabile compounds” (The Trustees of Columbia University in the City of New York, priority 2009, dated 2017)
# Key:
# [1] = Behaviour of modified rhodamine ligand at physiological pH; type: physicochemical
# Source text: Given these properties, the chemical structure of rhodamine B was modified by adding a “sticky tail” in order to coordinate the fluorescent molecule to the metal center. In a first attempt to synthesize a modified rhodamine bearing a coordinating group, carboxylate was amidated with aminopropionitrile, using the Adamczyk procedure (Adamczyk, M. J. Bioorg. Med. Chem. Lett. 2000, 10: 1539-1541). The obtained compound is RhodB-APN, indicated in scheme 1B. […] Rhodamine 6G can be modified similarly to the rhodamine B, described above.
# [2] = in aqueous solutions; cited from earlier work
# [3] = Cyclic voltammetry, redox potential; type: physicochemical; details: acetonitrile, vs. NHE
# Protocol: UV-vis spectra in water were obtained with an HP 8453 diode array spectrophotometer. RMN ^1H spectra were obtained using a Bruker 500 MHz equipment. CV measurements were performed with a PAR 273A potentiostat. Irradiation was effected by means of a pulsed Xe lamp, (pulse energy ˜0.5 J), with a low-pass filter at 480 nm. Irradiation using a 473 nm DPSS laser gave similar results.
# (See, e.g., E. S. Dodsworth et al., 1986, Chem. Phys. Lett., 124:152-158). The photoactivity of these compounds has been explained in terms of a reaction pathway that involves the transition between the MLCT state to a lower-energy d-d state, which promotes ligand release. There is a direct correspondence between the energy of the MLCT transition and the quantum yield of the photoreaction. For [Ru(bpy)2(4AP)CH3CN]^2+, the photoreaction yield is about φPR=0.4. Since [Ru(bpy)2(4AP)2]Cl2 presents a red-shifted band, a lower photoreaction yield is expected. An estimate based on early experiments leads to an estimate of φPR≅0.02 at 473 nm.
# Its aqueous solutions present a strong metal to ligand charge-transfer band (MLCT band) at 450 nm, characteristic of this family of Ru polypyridines.
# [4] = Photorelease of glutamate, UV-Vis during 450 nm LED irradiation; type: physicochemical
# Protocol: As the photoreaction proceeds, the generation of the aquo complex was recorded to reach completion in about 4 minutes. The presence of two isosbestic points as well as a factor analysis performed on the spectra indicate that just two colored species are present in the solution, according to what is expected in a single photoaquation process. The spectrum of the photoproduct was found identical to that of the complex [Ru(bpy)2(PMe3)(H2O)]2^+, which can be synthesized by refluxing the chloro complex in water. At pH=11 a similar behavior was observed, although in this case the product is the hydroxo complex [Ru(bpy)2(PMe3)(OH)]^+.
# The irradiance of the light source was calibrated using the known efficiency of the photolysis of [Ru(bpy)(Py)2]^2+. The amount of photoreleased glutamate was fitted using a two-parameter single-exponential function: y=a[1−exp(−bx)] and the quantum yield (φPC) was obtained as a•b, adopting a value of 0.13 at pH=7 and 0.10 at pH=11.
# [5] = Flash photolysis, uncaging time; type: physicochemical; details: basic aqueous solution, 532 nm, 10 ns pulse
# Protocol: In order to estimate the uncaging time, a flash photolysis experiment was performed on a basic aqueous solution of [Ru(bpy)2(PMe3)Glu] using the second harmonic of a Nd-YAGlaser (532 nm, 10 ns pulse). The photocleavage occurs within the first 50 ns, being the fastest reported caged compound, to our knowledge. The fact that a tens of nanoseconds are required to complete the glutamate uncaging reaction is compatible with the observation that the excited state lifetime measured for a similar compound containing pyridine instead of glutamate is in the range of 10-100 ns.
# [6] = 1H-NMR in D2O, isotopic exchange / inertness; type: physicochemical; details: 2 months in D2O at room temperature
# Source text: The aliphatic region corresponding to the glutamate moiety is depicted in the upper trace of FIG. 18, where —NH2 protons appear at 4.50, 4.12, 4.00 and 3.57 ppm. […] This behavior differs from that of free glutamate which, under the same conditions, exchanges rapidly D+ for H+.
# [7] = tested on: living neocortical pyramidal neurons in mouse brain slices; assay: Biocompatibility test on brain slices (two-photon microscopy, whole-cell patch recordings); type: cell-based; details: 350 μM, 1 hour of incubation
# Protocol: Biocompatibility tests were performed to evaluate the potential toxicity of the complex. 350 μM [Ru(bpy)2(PMe3)Glu], a concentration used for two-photon uncaging experiments, was incubated with living neocortical pyramidal neurons in mouse brain slices, and carefully monitored the morphology and electrophysiological properties of the neurons using two-photon microscopy and whole-cell patch recordings.
# [8] = Fluorescence emission quantum yield before and after irradiation; type: physicochemical; details: after blue light (473 nm) irradiation
# Source text: All reagents were purchased from Sigma-Aldrich and used as received. Ru(bpy)2Cl2 was synthesized according to the literature using water as solvent (Viala, C.; Coudret, C. Inorg. Chim. Acta 2006, 359: 984-989). UV-vis spectra were taken with a HP8453 diode-array spectrometer. NMR spectra were obtained using a 500 MHz Bruker AM-500. Fluorescence emission measurements were made with a PTI Quantamaster spectrofluorometer, corrected for the instruments response function. Rhodamine B was used as fluorescence standard of emission quantum yield (φ=0.31 in aqueous solutions). Quantum yield of the complex was obtained directly from the ratio of the spectral areas, which present the same shape.
# FIG. 20 depicts the emission spectra of the complex during irradiation. The maximum and the shape of the initial emission spectrum is the same as that of the free ligand RhodB-MAPN but the emission quantum yield is much lower, around pt=0.04. Quantum yields are easily calculated integrating the spectral areas. After irradiation with a 473 nm laser, RhodB-MAPN is released and the solution increases its fluorescence up to 6 fold, to φt=0.24.
# Retzius cells = assay: Injection of caged fluorescent probe into living neurons; type: cell-based, Hirudo medicinalis; details: short-term (˜2 h) experiments
# Protocol: Microscopy of leech (Hirudo medicinalis) ganglia was performed in a custom-made setup for photoelectrophisiology equipped with a micromanipulator used to impale the neuron body with the ˜1 μm tip diameter capillaries, and a CCD webcam as a registering device. An isolated leech ganglion from a segment between 7 and 14 was pinned down in a sylgard-coated, 35 mm Petri dish. Retzius cells were identified by their position, size, and firing behavior. Intracellular recordings were obtained with ˜20 MΩ sharp capillary microelectrodes, a Neuroprobe 1600 (A-M Systems) amplifier and a A/D signal acquisition board at 1 kHz sampling rate and custom-made software. For iontophoretical injection of the dye the microelectrode was filled with recording solution to which 1 mM caged fluorescent dye (chloride form) was added. Square, biphasic pulses of 1 nA, 2 Hz were applied for less that 5 min.
# This example provides an activatable fluorescent probe with surprising sensitivity in the visible light region. It increases its intrinsic fluorescence up to 6-fold after blue light irradiation. […] The probe was used to image the laminar flow inside a thin spectrophotometric flow cell and to visualize the parabolic-shaped flow in a FIA capillary.
smiles,measurement,setting,value
CCN(CC)c1ccc2c(-c3ccccc3C(=O)NCCC#N)c3ccc(=[N+](CC)CC)cc-3oc2c1 [RhodB-APN],stability of fluorescent form,[1],undergoes isomerization to the cyclic spirolactame form
CCN(CC)c1ccc2c(-c3ccccc3C(=O)O)c3ccc(=[N+](CC)CC)cc-3oc2c1.[Cl-] [Rhodamine B],emission quantum yield (fluorescence standard),[2],0.31
CP(C)C.F[P-](F)(F)(F)(F)F.F[P-](F)(F)(F)(F)F.NC(CCC(=O)O)C(=O)O.[Ru+2].c1ccc(-c2ccccn2)nc1.c1ccc(-c2ccccn2)nc1 [[Ru(bpy)2(PMe3)GlutH2](PF6)2],"redox process, Ru(III)/Ru(II) couple of the original complex",[3],0.98 V
same,quantum yield (φPC) of glutamate photorelease,[4]; pH=7,0.13
same,time for photoreaction to reach completion,"[4]; pH=7, 450±20 nm LED",about 4 minutes
same,quantum yield (φPC) of glutamate photorelease,[4]; pH=11,0.10
same,photocleavage time,[5],≤ 50 ns
same,isotopic exchange of coordinated -NH2 (inertness),[6],no exchange is seen
same,effects on morphology and electrophysiological properties of neurons,[7],no detectable effects were observed
CCN(CC)c1ccc2c(-c3ccccc3C(=O)N(C)CCC#N)c3ccc(=[N+](CC)CC)cc-3oc2c1.[Cl-].[Cl][Ru+].c1ccc(-c2ccccn2)nc1.c1ccc(-c2ccccn2)nc1 [[Ru(bpy)2(RhodB-MAPN)Cl]Cl],increase of fluorescence,[8],up to 6 fold
same,acute toxicity in injected living cells,Retzius cells,no sign of acute toxicity
